Counter-ions that a name gives are not always drawn.
target: T1, human mGluR2 (Homo sapiens, UniProt Q14416); experiment: mGluR2 cAMP assay; format: cell-based; details: clonally expressed human mGluR2 in HEK293; 1 μM forskolin, 1 μM LY-341495, 30 min; CISBIO cAMP kit; read-out: EC50 (nM), activity in mGluR2 cAMP assay
T1 construct: expressed in transfected cells; host or cells: HEK293 clonal line
Procedure: On the day of the assay, media was removed, cells washed with PBS, cells harvested and pelleted by centrifugation. Cell pellets were resuspended in stimulation buffer without forskolin and counted. […] A standard curve was created using a top concentration of cAMP of 1 μM in the stimulation buffer, 1:3 dilutions over 14 points in the absence of cells. […] In house software converted the fluorescence value ratios to units of cAMP concentration, which is then used to calculate % inhibition for each test compound. MGluR2 cAMP Assay Materials and Methods. […] Buffer without forskolin was used as a negative control. Solutions of D2 and cryptate detection reagents from the CISBIO dynamic cAMP kit (62AM4PEJ) were diluted 1:40 in lysis buffer. Lysis buffer consisted of 50 mM Phosphate Buffer pH 7.0, 800 mM Potassium Fluoride, 0.2% BSA, and 1.0% Triton. Assay reaction was terminated by addition of detection reagents in lysis buffer. One hour later, plates were read on a PE Viewlux. Data was extracted, and concentration response curves generated by fitting the data to a standard 4 parameter logistic equation from which EC50 values were determined.

T1 sequence (Q14416 19-872): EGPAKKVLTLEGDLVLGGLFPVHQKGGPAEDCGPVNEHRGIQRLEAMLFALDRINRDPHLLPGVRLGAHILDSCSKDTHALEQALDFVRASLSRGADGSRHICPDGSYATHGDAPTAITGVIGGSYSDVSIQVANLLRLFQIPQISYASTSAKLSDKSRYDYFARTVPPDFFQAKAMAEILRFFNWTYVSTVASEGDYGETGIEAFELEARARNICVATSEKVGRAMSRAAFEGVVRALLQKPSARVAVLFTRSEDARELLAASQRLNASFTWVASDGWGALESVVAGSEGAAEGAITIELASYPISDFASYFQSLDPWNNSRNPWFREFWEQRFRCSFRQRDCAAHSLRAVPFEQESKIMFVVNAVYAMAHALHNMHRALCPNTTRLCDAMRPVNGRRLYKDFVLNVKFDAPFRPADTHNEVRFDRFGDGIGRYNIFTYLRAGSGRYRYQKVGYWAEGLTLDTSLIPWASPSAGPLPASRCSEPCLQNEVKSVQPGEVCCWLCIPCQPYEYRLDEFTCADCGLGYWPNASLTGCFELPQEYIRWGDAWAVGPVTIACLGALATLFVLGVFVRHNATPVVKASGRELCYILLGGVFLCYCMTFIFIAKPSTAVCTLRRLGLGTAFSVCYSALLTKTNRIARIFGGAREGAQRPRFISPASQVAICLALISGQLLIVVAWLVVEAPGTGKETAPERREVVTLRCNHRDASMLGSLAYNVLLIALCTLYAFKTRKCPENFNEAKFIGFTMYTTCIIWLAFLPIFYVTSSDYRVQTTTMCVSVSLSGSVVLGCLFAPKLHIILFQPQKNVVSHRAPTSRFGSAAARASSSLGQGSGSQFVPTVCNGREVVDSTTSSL

| Compound | EC50 [nM] |
| --- | --- |
| CC(C)(COc1ccn2c(COCC(F)(F)F)nnc2c1C(F)(F)F)Oc1ccc(Cl)cc1 [Example 22, 7-(2-(4-Chlorophenoxy)-2-methylpropoxy)-3-((2,2,2-trifluoroethoxy)methyl)-8-(trifluoromethyl)-[1,2,4]triazolo[4,3-a]pyridine, TFA salt] | 4.9 |
| COCc1nnc2c(C(F)(F)F)c(OCC(C)(C)Oc3ccc(Cl)cc3)ccn12 [Example 23, 7-(2-(4-Chlorophenoxy)-2-methylpropoxy)-3-(methoxymethyl)-8-(trifluoromethyl)-[1,2,4]triazolo[4,3-a]pyridine, TFA salt] | 120 |
| FC(F)(F)c1c(OC[C@H]2C[C@@H]2c2ccc(Cl)cc2)ccn2c(CC3CC3)nnc12 [Example 34, 7-(((1S,2S)-2-(4-Chlorophenyl)cyclopropyl)methoxy)-3-(cyclopropylmethyl)-8-(trifluoromethyl)-[1,2,4]triazolo[4,3-a]pyridine] | 1.6 |
| Fc1ccc(C2(COc3ccn4c(CC5CC5)nnc4c3C(F)(F)F)CC2)c(F)c1 [Example 51, 3-(Cyclopropylmethyl)-7-((1-(2,4-difluorophenyl)cyclopropyl)methoxy)-8-(trifluoromethyl)-[1,2,4]triazolo[4,3-a]pyridine] | 43 |
| Fc1ccc([C@H]2C[C@@H]2COc2ccn3c(CC(F)(F)F)nnc3c2C(F)(F)F)cc1 [Example 52, 7-(((1S,2S)-2-(4-Fluorophenyl)cyclopropyl)methoxy)-3-(2,2,2-trifluoroethyl)-8-(trifluoromethyl)-[1,2,4]triazolo[4,3-a]pyridine] | 1.6 |
| N#C[C@]1(c2cc(F)cc(F)c2)C[C@H](Oc2ccn3c(CC4CC4)nnc3c2C(F)(F)F)C1 [Example 54, (1s,3s)-3-(3-(Cyclopropylmethyl)-8-(trifluoromethyl)-[1,2,4]triazolo[4,3-a]pyridin-7-yloxy)-1-(3,5-difluorophenyl)cyclobutanecarbonitrile] | 2.2 |
| Fc1cc(F)cc(C2(COc3ccn4c(CC5CC5)nnc4c3C(F)(F)F)CC2)c1 [Example 55, 3-(Cyclopropylmethyl)-7-((1-(3,5-difluorophenyl)cyclopropyl)methoxy)-8-(trifluoromethyl)-[1,2,4]triazolo[4,3-a]pyridine] | 20 |
| FC(F)(F)c1c(OCC2(c3cc(Cl)cc(Cl)c3)CC2)ccn2c(CC3CC3)nnc12 [Example 56, 3-(Cyclopropylmethyl)-7-((1-(3,5-dichlorophenyl)cyclopropyl)methoxy)-8-(trifluoromethyl)-[1,2,4]triazolo[4,3-a]pyridine] | 22 |
| FC(F)(F)c1c(O[C@H]2C[C@H](c3ccccc3)C2)ccn2c(CC3CC3)nnc12 [Example 57, 3-(Cyclopropylmethyl)-7-((1r,3r)-3-phenylcyclobutoxy)-8-(trifluoromethyl)-[1,2,4]triazolo[4,3-a]pyridine] | 0.5 |
| Clc1ccc(COc2ccn3c(CC4CC4)nnc3c2Cl)cc1 [Example 58, 8-Chloro-7-(4-chlorobenzyloxy)-3-(cyclopropylmethyl)-[1,2,4]triazolo[4,3-a]pyridine, TFA salt] | 60 |
| CC(Oc1ccn2c(CC3CC3)nnc2c1Cl)c1ccc(F)cc1 (stereo not drawn) [Example 59, 8-Chloro-3-(cyclopropylmethyl)-7-(1-(4-fluorophenyl)ethoxy)-[1,2,4]triazolo[4,3-a]pyridine] | 530 |
| Clc1cccc(COc2ccn3c(CC4CC4)nnc3c2Cl)c1 [Example 60, 8-Chloro-7-(3-chlorobenzyloxy)-3-(cyclopropylmethyl)-[1,2,4]triazolo[4,3-a]pyridine] | 18 |
| COc1cccc(COc2ccn3c(CC4CC4)nnc3c2Cl)c1 [Example 61, 8-Chloro-3-(cyclopropylmethyl)-7-(3-methoxybenzyloxy)-[1,2,4]triazolo[4,3-a]pyridine] | 40 |
| Clc1c(OCCCc2cccnc2)ccn2c(CC3CC3)nnc12 [Example 62, 8-Chloro-3-(cyclopropylmethyl)-7-(3-(pyridin-3-yl)propoxy)-[1,2,4]triazolo[4,3-a]pyridine] | 270 |
| Clc1c(OCCOc2ccccc2)ccn2c(CC3CC3)nnc12 [Example 63, 8-Chloro-3-(cyclopropylmethyl)-7-(2-phenoxyethoxy)-[1,2,4]triazolo[4,3-a]pyridine] | 100 |
| Clc1c(OCCc2ccccc2)ccn2c(CC3CC3)nnc12 [Example 64, 8-Chloro-3-(cyclopropylmethyl)-7-phenethoxy-[1,2,4]triazolo[4,3-a]pyridine] | 32 |
| COc1cc(COc2ccn3c(CC4CC4)nnc3c2Cl)ccc1F [Example 65, 8-Chloro-3-(cyclopropylmethyl)-7-(4-fluoro-3-methoxybenzyloxy)-[1,2,4]triazolo[4,3-a]pyridine] | 110 |
| Clc1ccccc1COc1ccn2c(CC3CC3)nnc2c1Cl [Example 66, 8-Chloro-7-(2-chlorobenzyloxy)-3-(cyclopropylmethyl)-[1,2,4]triazolo[4,3-a]pyridine] | 11 |
| Cc1cccc(COc2ccn3c(CC4CC4)nnc3c2Cl)c1 [Example 67, 8-Chloro-3-(cyclopropylmethyl)-7-(3-methylbenzyloxy)-[1,2,4]triazolo[4,3-a]pyridine] | 55 |
| Fc1ccccc1COc1ccn2c(CC3CC3)nnc2c1Cl [Example 68, 8-Chloro-3-(cyclopropylmethyl)-7-(2-fluorobenzyloxy)-[1,2,4]triazolo[4,3-a]pyridine] | 68 |
| Clc1ccc(COc2ccn3c(CC4CC4)nnc3c2Cl)cc1Cl [Example 69, 8-Chloro-3-(cyclopropylmethyl)-7-(3,4-dichlorobenzyloxy)-[1,2,4]triazolo[4,3-a]pyridine] | 32 |
| COc1ccc(COc2ccn3c(CC4CC4)nnc3c2Cl)cc1 [Example 70, 8-Chloro-3-(cyclopropylmethyl)-7-(4-methoxybenzyloxy)-[1,2,4]triazolo[4,3-a]pyridine] | 140 |

The remaining lines, values ahead:

| EC50 [nM] | Compound |
| --- | --- |
| 0.3 | CO[C@]1(c2ccc(F)cc2)CC[C@H](Oc2ccn3c(CC4CC4)nnc3c2C(F)(F)F)CC1 [Example 19, 3-(Cyclopropylmethyl)-7-((1s,4s)-4-(4-fluorophenyl)-4-methoxycyclohexyloxy)-8-(trifluoromethyl)-[1,2,4]triazolo[4,3-a]pyridine] |
| 0.4 | FC(F)(F)c1c(O[C@H]2CC[C@H](c3ccccc3)CC2)ccn2c(CC3CC3)nnc12 [Example 20, 3-(Cyclopropylmethyl)-7-((1r,4r)-4-phenylcyclohexyloxy)-8-(trifluoromethyl)-[1,2,4]triazolo[4,3-a]pyridine] |
| 0.8 | O[C@]1(c2ccc(F)c(F)c2)CC[C@H](Oc2ccn3c(CC4CC4)nnc3c2C(F)(F)F)CC1 [Example 26, (1s,4s)-4-(3-(Cyclopropylmethyl)-8-(trifluoromethyl)-[1,2,4]triazolo[4,3-a]pyridin-7-yloxy)-1-(3,4-difluorophenyl)cyclohexanol, TFA salt] |
| 0.6 | FC(F)(F)COCc1nnc2c(C(F)(F)F)c(O[C@H]3CC[C@H](c4ccccc4)CC3)ccn12 [Example 27, 7-((1r,4r)-4-Phenylcyclohexyloxy)-3-((2,2,2-trifluoroethoxy)methyl)-8-(trifluoromethyl)-[1,2,4]triazolo[4,3-a]pyridine] |
| 0.7 | CO[C@]1(c2ccc(F)c(F)c2)CC[C@H](Oc2ccn3c(CC4CC4)nnc3c2C(F)(F)F)CC1 [Example 28, 3-(Cyclopropylmethyl)-7-((1s,4s)-4-(3,4-difluorophenyl)-4-methoxycyclohexyloxy)-8-(trifluoromethyl)-[1,2,4]triazolo[4,3-a]pyridine] |
| 13 | FC(F)(F)c1c(OCC2(c3ccc(Cl)cc3)CC2)ccn2c(CC3CC3)nnc12 [Example 29, 7-((1-(4-Chlorophenyl)cyclopropyl)methoxy)-3-(cyclopropylmethyl)-8-(trifluoromethyl)-[1,2,4]triazolo[4,3-a]pyridine] |
| 16 | Fc1ccc(C2(COc3ccn4c(CC5CC5)nnc4c3C(F)(F)F)CC2)cc1 [Example 30, 3-(Cyclopropylmethyl)-7-((1-(4-fluorophenyl)cyclopropyl)methoxy)-8-(trifluoromethyl)-[1,2,4]triazolo[4,3-a]pyridine] |
| 4 | FC(F)(F)c1c(OC[C@@H]2C[C@H]2c2ccc(Cl)cc2)ccn2c(CC3CC3)nnc12 [Example 33, 7-(((1R,2R)-2-(4-Chlorophenyl)cyclopropyl)methoxy)-3-(cyclopropylmethyl)-8-(trifluoromethyl)-[1,2,4]triazolo[4,3-a]pyridine] |
| 0.5 | N#C[C@]1(c2cccc(F)c2)C[C@H](Oc2ccn3c(CC4CC4)nnc3c2C(F)(F)F)C1 [Example 46, (1s,3s)-3-(3-(Cyclopropylmethyl)-8-(trifluoromethyl)-[1,2,4]triazolo[4,3-a]pyridin-7-yloxy)-1-(3-fluorophenyl)cyclobutanecarbonitrile] |
| 2.7 | N#C[C@]1(c2ccc(F)cc2)C[C@H](Oc2ccn3c(CC4CC4)nnc3c2C(F)(F)F)C1 [Example 50, (1s,3s)-3-(3-(Cyclopropylmethyl)-8-(trifluoromethyl)-[1,2,4]triazolo[4,3-a]pyridin-7-yloxy)-1-(4-fluorophenyl)cyclobutanecarbonitrile] |
| 0.3 | COc1ccccc1[C@]1(C#N)C[C@@H](Oc2ccn3c(CC4CC4)nnc3c2C(F)(F)F)C1 [Example 53, (1s,3s)-3-(3-(Cyclopropylmethyl)-8-(trifluoromethyl)-[1,2,4]triazolo[4,3-a]pyridin-7-yloxy)-1-(2-methoxyphenyl)cyclobutanecarbonitrile] |
